According to patent publication US5332734A, “Oxazinone derivative” (Japan Tobacco, Incorporated, priority 1991, dated 1994):
pIC50: −log10 of the molar value.

How the values were obtained:
Type in all cases: biochemical
human cathepsin G (HCG) = target: T1, human cathepsin G (HCG) (Homo sapiens, UniProt P08311); experiment: HCG inhibitory activity; conditions: HCG 50 nM, substrate 0.5 mM, pH 7.5
T1 construct: purchased Cosmo Bio Inc
T1 sequence (P08311 21-255): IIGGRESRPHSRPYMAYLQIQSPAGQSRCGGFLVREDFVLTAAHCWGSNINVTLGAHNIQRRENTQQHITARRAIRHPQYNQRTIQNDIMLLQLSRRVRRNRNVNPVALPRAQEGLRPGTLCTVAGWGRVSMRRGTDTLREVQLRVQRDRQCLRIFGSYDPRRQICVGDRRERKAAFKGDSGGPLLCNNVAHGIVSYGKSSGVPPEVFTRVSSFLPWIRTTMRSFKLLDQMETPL
Method: (§1) Inhibotory activities of the oxadinone derivative of the present invention against human leukocyte elastase (HLE), human sputum elastase (HSE), human cathepsin G (HCG), bovine pancreatic α-chymotrypsin (CYT) and bovine pancreatic trypsin (TRY) were measured as follows:
(3) Measurement of HCG Inhibitory Activity
a) Enzyme Preparing Method Bought from Cosmo Bio Inc.
(§2) Employed was a measuring method similar to that described previously in conjunction with the measurement of the HLE inhibiting activity, except that used was a buffer solution of pH 7.5. The final concentrations of HCG and the synthetic substrate (Ac-Ala-Ala-Pro-Phe-pNA; FUNAKOSHI) in the solution of the enzyme reaction were 50 nM and 0.5 mM, respectively.

[1] = target: T2, human leukocyte elastase (HLE) (Homo sapiens, UniProt P08246); experiment: HLE inhibitory activity; conditions: HLE 5.63 nM, substrate 0.2625 mM, pH 8.6, 37° C.
T2 construct: applying a density gradient centrifugal operation so as to obtain neutrophils; from tissue; host or cells: neutrophils from human venous blood
T2 sequence (P08246 30-267): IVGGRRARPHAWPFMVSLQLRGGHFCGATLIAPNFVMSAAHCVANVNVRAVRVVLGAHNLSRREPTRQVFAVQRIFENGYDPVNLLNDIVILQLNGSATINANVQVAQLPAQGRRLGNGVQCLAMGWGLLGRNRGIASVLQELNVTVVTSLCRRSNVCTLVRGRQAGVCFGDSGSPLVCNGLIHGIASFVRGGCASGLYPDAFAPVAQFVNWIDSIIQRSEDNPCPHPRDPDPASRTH
Method: as §1
(1) Measurement of HLE Inhibitory Activity
A buffy coat was obtained by subjecting human vein blood to centrifugal separation, followed by adding distilled water to the buffy coat thus obtained for performing a low tension treatment so as to collapse erythrocytes. A mixture consisting of 10 parts of a 33.4% Conrey 400 solution and 24 parts of 9% of Ficoll solution was added to the residual blood cell component, followed by applying a density gradient centrifugal operation so as to obtain neutrophils. The neutrophil fraction was washed three times with Hanks' buffer so as to recover cells, which were frozen at -80° C. for preservation until the cells were used. The cells preserved under a frozen state were thawed with warm water of 37° C. and suspended in the lysis buffer (0.1M Tris-HCl pH 7.5, 1M MgCl2, 0.1% Brij 35), the amount of the buffer being 9 times as much as that of the cells. Then, the suspended cells were collapsed with polotron while cooling the suspension with ice. Then, the suspension was subjected to a centrifugal separation at 100,000×g for one hour so as to remove the precipitate. Also, a buffer (5 mM Tris-HCl pH 7.5, 1M NaCl, 1.1% Brij 35) was added to the supernatant in an amount twice as much as the supernatant so as to prepare a crude solution of an enzyme extract. The crude solution of an enzyme extract was adsorbed on an aprotinin affinity column. Further, the active fraction eluted with a 50 ml glycine-HCl solution (pH 3.3, 1M NaCl, 0.1% Brij 35) was passed through a MONO S ion-exchange chromatography. The active fraction eluted with a 2M NaCl linear gradient was dialyzed and, then, subjected to a freeze-drying so as to prepare an enzyme sample.
A test compound to be detected was dissolved in DMSO (for fluorometry) so as to prepare solutions of various concentrations. Then, the solution of 0.2M Tris-HCl (pH 9.6) was added to each of the solutions in an amount twice as much as the solution so as to prepare a test solution. On the other hand, a synthetic substrate (MeOSuc-Ala-Pro-Val-pNA; FUNAKOSHI) was dissolved in DMSO, followed by adding 0.2M tris-HCl solution (pH 8.6) to the solution in an amount twice as much as the solution so as to prepare a substrate solution.
A microplate (NUNK) provided with 96 wells was used for the reaction. The reaction was repeatedly carried out 6 times for each concentration of the test compound. Each of 140 μl of the enzyme solution (0.2M Tris-HCl, pH 8.6), 30 μl of the test material solution and 30 μl of the substrate solution was pre-incubated for 10 minutes at 37° C. for each well of the microplate. After incubation of a mixture of the enzyme solution and the test material solution for 10 minutes, the substrate solution was added so as to carry out the enzyme reaction. For determining the substrate decomposition, the absorbance (405 run) of the released pNA was measured by a microplate reader (MTP-100; CORONA), and the substrate decomposition was calculated on the basis of the average value of the absorbances repeatedly measured 6 times. The inhibitory concentration of the test compound relative to the decomposition amount of the substrate in the case where the test compound was not added was obtained as IC50 value.

[2] = target: T3, bovine pancreatic α-chymotrypsin (CYT) (Bos taurus, UniProt P00766); experiment: CYT inhibitory activity; conditions: CYT 3.4 nM, substrate 0.273 mM, pH 8.0
T3 construct: purchased Sigma Inc; host or cells: bovine pancreas (by its name)
Method: as §1
(4) Measurement of CYT Inhibitory Activity
a) Enzyme Preparing Method Bought from Sigma Inc.
as §2, with “8.0.” for “7.5.”, “CYT” for “HCG”, “3.4” for “50”, “0.273” for “0.5”

| Compound | pIC50 (human cathepsin G (HCG)) | pIC50 [1] | pIC50 [2] |
| --- | --- | --- | --- |
| Cc1cccc2nc([C@@H](NC(=O)OCC3c4ccccc4-c4ccccc43)C(C)C)oc(=O)c12 [Compound 1, 2-{1(S)-[(9-fluorenylmethoxycarbonyl)amino]-2-methylpropyl}-5-methyl-4H-3,1-benzoxazin-4-one] | < 5.26 | 6.62 | 5.32 |
| Cc1cccc2nc([C@H](CC(C)C)NC(=O)OCC3c4ccccc4-c4ccccc43)oc(=O)c12 [Compound 2, 2-{1(S)-[(9-fluorenylmethoxycarbonyl)amino]-3-methylbutyl}-5-methyl-4H-3,1-benzoxazin-4-one] | < 5.27 | 6.14 | 5.35 |
